# Reference: US8501734B2, “Medical intervention in haematological cancers” (Oncotyrol-Center for Personalized Cancer Medicine GmbH …, priority 2008, dated 2013)
# Legend:
# [1] = test system: non-tumor cells (CD38negCD45high); test: Annexin V/PI apoptosis assay, non-tumor fraction of patient BMMCs; type: cell-based, human; conditions: CD45high non-tumor cells, 40 μg/ml, 8 h or 24 h
# Procedure: (§1) For collection of primary multiple myeloma cells, bone marrow aspirates from iliac crests were collected during routine examinations after obtaining informed patient consent. Bone marrow mononuclear cells (BMMCs) were separated by density centrifugation. Fresh blood samples were diluted 1:1 with RPMI 1640 medium and layered over Biocoll separating solution (1.077 g/ml, Biochrom AG, Berlin; blood/RPMI1640/Biocoll; 1:1:1, v/v/v). Centrifugation was carried out for 20 min at 400 g. […] The percentage of multiple myeloma cells within the BMMCs was determined by flow cytometry. Briefly, 2×10^5 cells were stained for 15 min with fluorochrome-labelled antibodies to CD38 (phycoerythrin, PE) and CD45 (phycoerythrin-cyanin 5, PC5) (both from Beckman Coulter Inc., Fullerton, Calif., USA), washed with PBS and were immediately analyzed using the FC500 flow cytometer and the RXP1.0 software (Beckman Coulter). MM cells were detected by their high expression of CD38 and weak to absent expression of CD45.
# (§2) After treatment adherent cells were trypsinized (as described before), and resuspended in corresponding full medium. […] At least 10.000 cells were measured per sample using a Becton Dickinson FACSCalibur flow Cytometer (San Jose, Calif., USA). […]
# [2] = test system: Raji, Daudi, Ramos, Jurkat, C7H2 cell lines; test: Annexin V/PI apoptosis assay, non-multiple myeloma suspension cell lines; type: cell-based; conditions: 24 h
# Procedure: (§3) After treatment adherent cells were trypsinized (as described before), and resuspended in corresponding full medium. Suspension cells or trypsinized adherent cells, supernatant and washing solution (1×PBS from washing before trypsinization) were pooled and then spun down (300 g for 3 min) washed in 2 ml and resuspended in 1000 of annexin V binding buffer and mixed with 2 μg/ml annexin V-Allophycocyanin (APC) (BD-Pharmingen, San Diego, Calif., USA) and 50 ng/ml of propidium iodide (PI; Sigma Aldrich). At least 10.000 cells were measured per sample using a Becton Dickinson FACSCalibur flow Cytometer (San Jose, Calif., USA). Percentage of Annexin V negative and PI negative cells were depicted in the figures. For the analysis of the pro-apoptotic activity of Imiquimod® in primary MM cells and non-malignant BMMCs, 5×10^5 cells BMMCs cells were treated with or without 40 μg/ml Imiquimod® for the indicated time periods. Cells were then harvested and washed twice with PBS. Detection of apoptotic cells was performed using the annexin V/PI assay according to manufacturers' instruction. Briefly, BMMCs were stained with a mixture of annexin V/FITC (Alexis Coorp., Laeufelfingen, Switzerland), propidium iodide (Sigma), anti-CD38-PE and anti-CD45-PC5 for 15 min at room temperature and immediately analyzed by flow cytometry. The percentages of viable cells (i.e. cells negative for annexin V/FITC and PI) within the MM (CD38^posCD45^low/absent) and non-MM fraction (CD38^neg/CD45^pos) were determined by flow cytometry.
# (§4) Adherent cells were grown in 24-well plates to confluence and treated with 40 μg/ml Imiquimod® for 24 h. Cells were then trypsinized, suspended in full medium, stained for AnnexinV/PI and apoptosis was measured as described before. Suspension cells (250.000) were treated with 40 μg/ml Imiquimod® for 24 h, stained for Annexin/PI and apoptosis was measured as described above (Annexin V/Propidium Iodide apoptosis Assay).
# [3] = test system: OPM2 cells; test: PARP cleavage assay (Western blot), OPM2 cells; type: cell-based; conditions: 40 μg/ml
# Procedure: Cells were lysed in lysis-IP-Buffer supplemented with protease inhibitors and sodium orthovanadate. 10 μg of lysate were separated by SDS-PAGE (10% polyacrylamide) and transferred to methanol activated Hypond-P PVDF-membranes (Amersham, Freiburg, Germany) by semi-dry blotting. Membranes were blocked in a 3% bovine serum albumin solution or 5% non fat dry milk solution in phosphate buffered saline (PBS) with 0.1% Tween 20 (PBT). Primary antibodies were applied in blocking solution for 1 h at room temperature or over night at 4° C. Membranes were washed in PBT and incubated with corresponding secondary antibodies in 5% non fat dry milk in PBT for 1 h at room temperature. Cells were washed with PBT, incubated with ECL solution and exposed in a Fluorchem 5500 (Biozym, Oldendorf, Germany).
# OPM2 cells were suspended in full medium and cultured in 24-well plates at a cell density of 500.000 cells/ml and well. Cells were left untreated (control) or treated over night with different concentrations of Imiquimod® (10, 20 or 40 μg/ml).
# OPM2 cells were cultured in 24-well plates as described above. Imiquimod® (40 μg/ml) was added to cells (except controls) for different time periods (2, 4, 6 and 8 h) and the extent of PARP1 cleavage, IRAK1, IkB-α and IkB-β degradation were determined by Western blot. α-Tubulin was used as a loading control.
# [4] = test system: MDA468, CHO, ONK2, MCF7, HeLa, Raji, Daudi, Ramos, C7H2 and Jurkat; adherent cell lines; test: Annexin V/PI apoptosis assay, non-MM and adherent cell lines; type: cell-based
# Procedure: as §3, with “For the analysis of the pro-apoptotic activity of Imiquimod® in primary MM cells and non-malignant BMMCs, 5×10^5 cells BMMCs cells were treated with or without 40 μg/ml Imiquimod® for the indicated time periods. Cells were then harvested and washed twice with PBS. Detection of apoptotic cells was performed using the annexin V/PI assay according to manufacturers' instruction.” left out
# Adherent cells were grown in 24-well plates to confluence and treated with 40 μg/ml Imiquimod® for 24 h. Cells were then trypsinized, suspended in full medium, stained for AnnexinV/PI and apoptosis was measured as described before. […]
# [5] = test system: U266 cells; test: Annexin V/PI apoptosis assay (FACS), U266 cells; type: cell-based; parameters: apoptosis induction: unit not given here; conditions: for apoptosis induction: Imi 20 μg/ml alone; as to apoptosis induction: key: 0 for no; + for low; ++: + indicates the range of apoptosis induction; +++: + indicates the range of apoptosis induction; ++++ for very strong apoptosis induction
# Procedure: as §3, §4
# OPM-2 and U266 cells (2.5×10^5 in 500 μl) were treated with either Imiquimod® alone (10 μg/500 μl), various inhibitors/drugs alone or with the combination of Imiquimod® and inhibitors for 24 or 48 h. In the controls the solvent of the drug has been added in appropriate amounts. Cells were then AnnexinV/PI stained and apoptosis measured as described before.
# [6] = test system: peripheral blood mononuclear cells (PBMCs); test: Annexin V/PI apoptosis assay, PBMCs from healthy donors; type: cell-based, human; conditions: 40 μg/ml, 24 h
# Procedure: PBMCs were prepared using separation via Ficoll density gradient centrifugation (Biochrom AG, Berlin, Germany) according to the protocol of the manufacturer.
# as §3, §4
# [7] = test system: primary MM cells (CD38highCD45low); test: Annexin V/PI apoptosis assay, primary MM cells from patient bone marrow aspirates; type: cell-based, human; conditions: 40 μg/ml, 8 h or 24 h, time dependent
# Procedure: as §1, §2
# [8] = test system: melanoma cells; conditions: 50 μg/ml, 24 h; cited from earlier work
compound,measurement,setting,value
"CC(C)Cn1cnc2c(N)nc3ccccc3c21 [Imiquimod, 1-(2-methylpropyl)-1H-imidazo[4,5-c]quinolin-4-amine]",apoptosis induction,[1],induction of apoptosis
same,sensitivity (apoptosis),"[2]; Raji and Jurkat, 40 μg/ml",if at all only low sensitivity
same,apoptosis induction,"[2]; Raji, Daudi, Ramos, Jurkat, C7H2, 20 μg/ml",apoptosis to some minor degree
same,PARP cleavage,[3]; 2 hours after application,some PARP cleavage
same,apoptosis induction in PARP cleavage assay,[3]; 6 h to 8 h after application,100%
same,PARP cleavage,[3]; after 6 hours,nearly complete PARP cleavage
same,onset of apoptosis induction,[3]; multiple myeloma cells,2 h
same,sensitivity to Imiquimod,"[4]; MDA468, CHO, ONK2, MCF7, HeLa, Raji, Daudi, Ramos, C7H2 and Jurkat",no sensitivity
same,sensitivity (apoptosis),"[4]; set of adherent cell lines, 40 μg/ml, 24 h",no significant or only minimal sensitivity
same,cells dying upon treatment,"[5]; 40 μg/ml, 24 h",about 30%
same,apoptosis induction,[5]; 24 h,+
same,apoptosis induction,"[5]; 48 h, listed as Imi",+ and ++
same,sensitivity (apoptosis),[6]; CD4+ and CD8+ cells from 12 healthy donors,nearly no sensitivity
same,sensitivity (apoptosis),[6]; CD19+ cells from 12 healthy donors,only mildly affected
same,apoptosis induction,[7],significantly induced apoptosis
same,apoptotic cells,[8],15.8%
